In patent US9642831B2, “Substituted chromanes and method of use” (AbbVie S.á.r.l., priority 2014, dated 2017):

Target: F508delCFTR (Homo sapiens, UniProt P13569, DEL508-508)
Experiment: Cell Surface Expression-Horse Radish Peroxidase (CSE-HRP) assay
Type: cell-based
Set-up: expressed in transfected cells; host or cells: CFBE41o- human lung derived epithelial cell line, doxycycline-inducible
Settings: CFBE4lo-F508delCFTR-HRP cells; for EC50: 18-24 hours at 33° C., 8-point curve, highest concentration 20 μM, luminescence readout; for Emax: maximum % activity at any tested concentration, normalized to on-plate positive control (3 μM Example 1)
From the text: Cell Surface Expression-Horse Radish Peroxidase (CSE-HRP) Assay:
A cellular assay for measuring the F508delCFTR cell surface expression after correction with test compounds was developed in human lung derived epithelial cell line (CFBE4lo-) (Veit G et al, (2012) Mol Biol Cell. 23(21): 4188-4202). This was achieved by expressing the F508delCFTR mutation along with a horseradish peroxidase (HRP) in the fourth exofacial loop and then measuring the HRP activity using luminescence readout from these cells, CFBE4lo-F508delCFTR-HRP, that were incubated overnight with the test corrector compounds. Briefly, for this primary assay, the CFBE4lo-F508delCFTR-HRP cells were plated in 384-well plates (Greiner Bio-one; Cat 781080) at 4,000 cells/well along with 0.5 μg/mL doxycycline to induce the F508delCFTR-HRP expression and further incubated at 37° C., 5% CO2 for 72 hours. The test compounds were then added at the required concentrations and further incubated for 18-24 hours at 33° C. The highest concentration tested was 20 μM with an 8-point concentration response curve using a 3-fold dilution. Three replicate plates were run to determine one EC50. All plates contained negative controls (dimethyl sulfoxide, DMSO) and positive controls (3 μM of 3-[(2R,4R)-4-({[1-(2,2-difluoro-1,3-benzodioxol-5-yl)cyclopropyl]carbonyl}amino)-7-methoxy-3,4-dihydro-2H-chromen-2-yl]benzoic acid) as well as on-plate concentration response of the positive control. Post incubation, the plates were washed 5× times with Dulbecco's phosphate buffered saline (DPBS), followed by the addition of the HRP substrate, luminol (50 μL), and measuring the HRP activity using luminescence readout on EnVision® Multilabel Plate Reader (Perkin Elmer; product number 2104-0010). The raw counts from the experiment are analyzed using Accelrys® Assay Explorer v3.3.
Z′ greater than 0.5 was used as passing quality control criteria for the plates.
The Z′ is defined as: 1−[3*SDPositive Control+3*SDNegative Control/Absolute(MeanPositive Control−MeanNegative Control)] wherein “SD” is standard deviation.
The % activity measured at each of the 8 test concentrations of the test compound was normalized to the on-plate positive control using the following formula: % activity=[(test compound response−DMSO response)/(positive control response−DMSO response)]*100
The maximum % activity achieved for the test compound at any tested concentration is presented in Table 1 along with the EC50 calculated using the following general sigmoidal curve with variable Hill slope equation (described as Model 42 in the Accelrys® Assay Explorer v3.3 software): y=(a−d)/(1+(x/c)^b)+d
General sigmoidal curve with concentration, response, top, bottom, EC50 and Hill slope.
This model describes a sigmoidal curve with an adjustable baseline, a. The equation can be used to fit curves where response is either increasing or decreasing with respect to the independent variable, “x”.
“x” is a concentration of drug under test.
“a” is the maximum response, and “d” is the minimum response
“c” is the inflection point (EC50) for the curve. That is, “y” is halfway between the lower and upper asymptotes when x=c.
“b” is the slope-factor or Hill coefficient. The sign of b is positive when the response increases with increasing dose and is negative when the response decreases with increasing dose (inhibition).

Sequence of F508delCFTR (P13569 with tags, fused parts or gaps DEL508-508): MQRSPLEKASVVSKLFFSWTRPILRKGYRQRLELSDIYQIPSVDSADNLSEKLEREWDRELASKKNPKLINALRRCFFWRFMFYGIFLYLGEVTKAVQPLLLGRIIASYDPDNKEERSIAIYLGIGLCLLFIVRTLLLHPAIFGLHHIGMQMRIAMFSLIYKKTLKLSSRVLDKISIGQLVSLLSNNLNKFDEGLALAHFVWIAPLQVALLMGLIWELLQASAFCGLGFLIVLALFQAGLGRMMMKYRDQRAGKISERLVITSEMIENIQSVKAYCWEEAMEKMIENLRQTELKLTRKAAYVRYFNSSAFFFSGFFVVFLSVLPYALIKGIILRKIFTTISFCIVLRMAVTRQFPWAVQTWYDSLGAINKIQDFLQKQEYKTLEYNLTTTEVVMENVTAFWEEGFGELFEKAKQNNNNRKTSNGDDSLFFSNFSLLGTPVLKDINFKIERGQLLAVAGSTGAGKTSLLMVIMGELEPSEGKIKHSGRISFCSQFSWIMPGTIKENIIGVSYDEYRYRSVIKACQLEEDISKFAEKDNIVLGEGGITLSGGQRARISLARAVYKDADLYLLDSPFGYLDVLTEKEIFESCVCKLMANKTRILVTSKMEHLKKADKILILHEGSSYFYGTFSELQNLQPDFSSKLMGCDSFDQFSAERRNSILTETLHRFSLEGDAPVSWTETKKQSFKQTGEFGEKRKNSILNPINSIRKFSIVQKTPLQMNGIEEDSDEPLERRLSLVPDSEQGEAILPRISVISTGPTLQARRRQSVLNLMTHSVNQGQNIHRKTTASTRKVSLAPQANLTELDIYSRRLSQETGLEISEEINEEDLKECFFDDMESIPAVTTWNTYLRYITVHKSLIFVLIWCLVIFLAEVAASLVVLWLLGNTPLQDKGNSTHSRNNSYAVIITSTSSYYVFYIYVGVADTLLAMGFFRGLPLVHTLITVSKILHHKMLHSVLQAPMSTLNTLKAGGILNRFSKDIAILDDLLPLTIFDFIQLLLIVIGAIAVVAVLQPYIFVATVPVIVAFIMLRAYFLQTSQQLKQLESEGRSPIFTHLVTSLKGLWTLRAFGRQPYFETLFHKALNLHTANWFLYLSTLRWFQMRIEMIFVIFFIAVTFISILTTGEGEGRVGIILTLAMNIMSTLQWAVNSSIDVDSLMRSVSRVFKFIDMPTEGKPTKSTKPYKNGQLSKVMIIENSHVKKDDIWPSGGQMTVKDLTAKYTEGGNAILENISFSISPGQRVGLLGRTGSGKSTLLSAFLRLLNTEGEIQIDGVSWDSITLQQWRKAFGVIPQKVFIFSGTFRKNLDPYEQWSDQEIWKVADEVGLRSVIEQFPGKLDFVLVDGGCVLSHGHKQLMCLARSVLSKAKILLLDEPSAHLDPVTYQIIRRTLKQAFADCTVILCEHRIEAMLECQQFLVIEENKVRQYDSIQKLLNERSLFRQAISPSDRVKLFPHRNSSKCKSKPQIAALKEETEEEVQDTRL

| SMILES | EC50 | Emax |
| --- | --- | --- |
| COc1ccc2c(c1)O[C@@H](c1cccnc1)C[C@@H]2NC(=O)C1(c2ccc3c(c2)OC(F)(F)O3)CC1 (racemic) [Example 22, rac-1-(2,2-difluoro-1,3-benzodioxol-5-yl)-N-[(2R,4S)-7-methoxy-2-(pyridin-3-yl)-3,4-dihydro-2H-chromen-4-yl]cyclopropanecarboxamide] | 1.77 µM | 109% |
| COc1ccc2c(n1)O[C@@H](c1cccc(C(=O)O)c1)C[C@@H]2NC(=O)C1(c2ccc3c(c2)OC(F)(F)O3)CC1 (racemic) [Example 29, rac-3-[(2R,4S)-4-({[1-(2,2-difluoro-1,3-benzodioxol-5-yl)cyclopropyl]carbonyl}amino)-7-methoxy-3,4-dihydro-2H-pyrano[2,3-b]pyridin-2-yl]benzoic acid] | 5.71 µM | 106% |
| COC(=O)c1cccc([C@H]2C[C@@H](NC(=O)C3(c4ccc5c(c4)OC(F)(F)O5)CC3)c3ccc(OC)nc3O2)c1 (racemic) [Example 30, methyl rac-3-[(2R,4R)-4-({[1-(2,2-difluoro-1,3-benzodioxol-5-yl)cyclopropyl]carbonyl}amino)-7-methoxy-3,4-dihydro-2H-pyrano[2,3-b]pyridin-2-yl]benzoate] | 1.88 µM | 78% |
| O=C(O)c1cccc([C@H]2C[C@@H](NC(=O)C3(c4ccc5c(c4)OC(F)(F)O5)CC3)c3cccnc3O2)c1 (racemic) [Example 31, rac-3-[(2R,4R)-4-({[1-(2,2-difluoro-1,3-benzodioxol-5-yl)cyclopropyl]carbonyl}amino)-3,4-dihydro-2H-pyrano[2,3-b]pyridin-2-yl]benzoic acid] | 10.7 µM | 21% |
| O=C(O)c1cccc([C@H]2C[C@H](NC(=O)C3(c4ccc5c(c4)OC(F)(F)O5)CC3)c3cccnc3O2)c1 (racemic) [Example 32, rac-3-[(2R,4S)-4-({[1-(2,2-difluoro-1,3-benzodioxol-5-yl)cyclopropyl]carbonyl}amino)-3,4-dihydro-2H-pyrano[2,3-b]pyridin-2-yl]benzoic acid] | ≥ 20 µM | 16% |
| COC(=O)c1cccc([C@H]2C[C@@H](NC(=O)C3(c4ccc5c(c4)OC(F)(F)O5)CC3)c3cccnc3O2)c1 (racemic) [Example 33, rac-methyl 3-[(2R,4R)-4-({[1-(2,2-difluoro-1,3-benzodioxol-5-yl)cyclopropyl]carbonyl}amino)-3,4-dihydro-2H-pyrano[2,3-b]pyridin-2-yl]benzoate] | 7.65 µM | 38% |

Other lines, results leading:

| EC50 | Emax | SMILES |
| --- | --- | --- |
| 3.05 µM | 88% | COC(=O)c1cccc(C2CC(NC(=O)C3(c4ccc5c(c4)OC(F)(F)O5)CC3)c3ccc(OC)nc3O2)c1 (mixture of isomers) [Example 37, methyl 3-[4-({[1-(2,2-difluoro-1,3-benzodioxol-5-yl)cyclopropyl]carbonyl}amino)-7-methoxy-3,4-dihydro-2H-pyrano[2,3-b]pyridin-2-yl]benzoate] |
| 1.94 µM | 77% | COc1ccc2c(c1)OC(C1CN(C(=O)OC(C)(C)C)C1)CC2NC(=O)C1(c2ccc3c(c2)OC(F)(F)O3)CC1 (mixture of isomers) [Example 115, tert-butyl 3-[4-({[1-(2,2-difluoro-1,3-benzodioxol-5-yl)cyclopropyl]carbonyl}amino)-7-methoxy-3,4-dihydro-2H-chromen-2-yl]azetidine-1-carboxylate] |
| 6.01 µM | 82% | COc1ccc2c(c1)OC(C1CN(S(C)(=O)=O)C1)CC2NC(=O)C1(c2ccc3c(c2)OC(F)(F)O3)CC1 (mixture of isomers) [Example 117, 1-(2,2-difluoro-1,3-benzodioxol-5-yl)-N-{7-methoxy-2-[1-(methylsulfonyl)azetidin-3-yl]-3,4-dihydro-2H-chromen-4-yl}cyclopropanecarboxamide] |
